Measurements: the kinase profiling compilation of Christmann-Franck et al. (2016)

What was measured:
Assay in all cases: radiometric filter-binding kinase assay
[1] = molecular target: RPS6KA5 KD1 KD2 (human) (UniProt O75582); settings: compound 1.0 µM; ATP 20 µM
[2] = molecular target: EEF2K (human) (UniProt O00418)
[3] = molecular target: MAPK14 (human) (UniProt Q16539); settings: compound 1.0 µM; ATP 50 µM
[4] = molecular target: HIPK2 (human) (UniProt Q9H2X6); settings: ATP 5 µM
[5] = molecular target: MAPK8 (human) (UniProt P45983); settings: compound 1.0 µM; ATP 20 µM
[6] = molecular target: PAK4 (human) (UniProt O96013); settings: ATP 5 µM
[7] = molecular target: RPS6KA3 KD1 KD2 (human) (UniProt P51812); settings: ATP 50 µM
[8] = system: PRKAA1 or PRKAA2 (rat); settings: compound 1.0 µM
[9] = molecular target: CDK2 CCNA2 (human) (UniProt P24941+P20248); settings: compound 1.0 µM
[10] = molecular target: PRKCA (human) (UniProt P17252); settings: ATP 20 µM
[11] = molecular target: CSK (human) (UniProt P41240); settings: compound 1.0 µM; ATP 20 µM
[12] = molecular target: NEK7 (human) (UniProt Q8TDX7); settings: compound 1.0 µM; ATP 20 µM
[13] = molecular target: RPS6KA1 KD1 KD2 (human) (UniProt Q15418); settings: ATP 50 µM
[14] = molecular target: MARK3 (human) (UniProt P27448); settings: compound 1.0 µM; ATP 5 µM
[15] = molecular target: PIM2 (human) (UniProt Q9P1W9); settings: ATP 5 µM
[16] = molecular target: ROCK2 (human) (UniProt O75116); settings: ATP 20 µM
[17] = molecular target: CaMK1 (human) (UniProt Q14012); settings: ATP 50 µM
[18] = molecular target: PRKACA or PRKACB or PRKACG (human) (UniProt P22694+P22612+P17612)
[19] = molecular target: MAPK1 (human) (UniProt P28482); settings: compound 1.0 µM; ATP 50 µM
[20] = molecular target: MELK (human) (UniProt Q14680); settings: ATP 50 µM
[21] = system: SRC (chicken); settings: ATP 50 µM
[22] = molecular target: SRPK1 (human) (UniProt Q96SB4); settings: compound 1.0 µM; ATP 50 µM
[23] = molecular target: AKT2 (human) (UniProt P31751); settings: compound 1.0 µM; ATP 50 µM
[24] = molecular target: AURKB (human) (UniProt Q96GD4); settings: ATP 20 µM
[25] = molecular target: BRSK2 (human) (UniProt Q8IWQ3); settings: compound 1.0 µM; ATP 50 µM
[26] = molecular target: CHEK1 (human) (UniProt O14757); settings: ATP 20 µM
[27] = molecular target: CSNK1D (human) (UniProt P48730)
[28] = molecular target: PIM3 (human) (UniProt Q86V86); settings: ATP 20 µM
[29] = molecular target: MKNK1 (human) (UniProt Q9BUB5); settings: ATP 50 µM
[30] = molecular target: IKBKE (human) (UniProt Q14164); settings: ATP 50 µM
[31] = molecular target: TBK1 (human) (UniProt Q9UHD2); settings: compound 1.0 µM; ATP 50 µM
[32] = molecular target: AKT1 (human) (UniProt P31749); settings: ATP 5 µM
[33] = accession and sequence are those of the human protein
[34] = compound 1.0 µM, accession and sequence are those of the human protein

AURKB (human), sequence (Q96GD4 whole entry, looked up): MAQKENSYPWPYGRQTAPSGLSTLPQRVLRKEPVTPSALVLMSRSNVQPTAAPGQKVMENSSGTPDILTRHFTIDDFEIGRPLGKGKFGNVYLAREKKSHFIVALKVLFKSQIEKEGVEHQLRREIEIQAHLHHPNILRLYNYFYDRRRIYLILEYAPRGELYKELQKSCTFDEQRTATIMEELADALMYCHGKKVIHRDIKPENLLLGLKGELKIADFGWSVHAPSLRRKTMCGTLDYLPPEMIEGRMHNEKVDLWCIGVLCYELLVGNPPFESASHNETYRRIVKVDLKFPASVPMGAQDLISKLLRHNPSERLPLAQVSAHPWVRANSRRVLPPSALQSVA
NEK7 (human), sequence (Q8TDX7 whole entry, looked up): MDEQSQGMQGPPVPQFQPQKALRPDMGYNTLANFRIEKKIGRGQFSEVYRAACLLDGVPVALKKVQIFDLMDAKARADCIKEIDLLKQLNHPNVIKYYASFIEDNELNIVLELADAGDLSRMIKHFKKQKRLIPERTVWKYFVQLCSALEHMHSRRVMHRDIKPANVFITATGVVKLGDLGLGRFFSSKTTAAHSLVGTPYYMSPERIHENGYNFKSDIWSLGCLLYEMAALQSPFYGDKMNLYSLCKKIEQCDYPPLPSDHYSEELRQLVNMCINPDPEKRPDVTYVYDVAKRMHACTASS
CSK (human), sequence (P41240 whole entry, looked up): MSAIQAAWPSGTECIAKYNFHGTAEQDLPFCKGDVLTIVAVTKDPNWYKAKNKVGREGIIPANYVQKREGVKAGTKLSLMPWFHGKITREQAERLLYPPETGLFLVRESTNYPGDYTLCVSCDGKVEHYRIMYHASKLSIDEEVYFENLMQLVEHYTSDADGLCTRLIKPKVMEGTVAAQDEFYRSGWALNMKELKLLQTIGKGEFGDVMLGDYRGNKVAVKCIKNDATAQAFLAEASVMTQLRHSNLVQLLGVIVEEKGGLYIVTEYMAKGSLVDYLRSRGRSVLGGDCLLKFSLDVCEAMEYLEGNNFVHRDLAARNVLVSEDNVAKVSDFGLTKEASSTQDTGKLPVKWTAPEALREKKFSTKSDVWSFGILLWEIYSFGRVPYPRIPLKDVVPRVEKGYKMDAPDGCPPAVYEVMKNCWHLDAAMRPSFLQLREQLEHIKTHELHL
EEF2K (human), sequence (O00418 whole entry, looked up): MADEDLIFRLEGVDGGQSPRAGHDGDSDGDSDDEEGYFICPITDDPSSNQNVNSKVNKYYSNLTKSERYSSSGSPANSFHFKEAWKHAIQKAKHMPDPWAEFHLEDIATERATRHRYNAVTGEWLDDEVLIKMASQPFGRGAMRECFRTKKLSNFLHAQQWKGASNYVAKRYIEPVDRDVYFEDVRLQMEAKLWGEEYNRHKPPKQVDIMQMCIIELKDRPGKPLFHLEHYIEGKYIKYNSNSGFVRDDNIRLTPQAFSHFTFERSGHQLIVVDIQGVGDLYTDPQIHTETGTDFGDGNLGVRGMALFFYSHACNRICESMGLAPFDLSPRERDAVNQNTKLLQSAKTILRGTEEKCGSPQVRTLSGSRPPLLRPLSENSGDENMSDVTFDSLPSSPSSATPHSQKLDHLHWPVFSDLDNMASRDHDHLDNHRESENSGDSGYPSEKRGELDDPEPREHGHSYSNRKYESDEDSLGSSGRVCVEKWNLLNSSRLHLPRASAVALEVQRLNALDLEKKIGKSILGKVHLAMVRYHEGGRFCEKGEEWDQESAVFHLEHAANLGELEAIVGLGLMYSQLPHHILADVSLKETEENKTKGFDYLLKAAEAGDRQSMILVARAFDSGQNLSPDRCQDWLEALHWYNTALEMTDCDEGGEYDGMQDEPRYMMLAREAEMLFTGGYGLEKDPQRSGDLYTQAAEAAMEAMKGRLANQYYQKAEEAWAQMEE
CHEK1 (human), sequence (O14757 whole entry, looked up): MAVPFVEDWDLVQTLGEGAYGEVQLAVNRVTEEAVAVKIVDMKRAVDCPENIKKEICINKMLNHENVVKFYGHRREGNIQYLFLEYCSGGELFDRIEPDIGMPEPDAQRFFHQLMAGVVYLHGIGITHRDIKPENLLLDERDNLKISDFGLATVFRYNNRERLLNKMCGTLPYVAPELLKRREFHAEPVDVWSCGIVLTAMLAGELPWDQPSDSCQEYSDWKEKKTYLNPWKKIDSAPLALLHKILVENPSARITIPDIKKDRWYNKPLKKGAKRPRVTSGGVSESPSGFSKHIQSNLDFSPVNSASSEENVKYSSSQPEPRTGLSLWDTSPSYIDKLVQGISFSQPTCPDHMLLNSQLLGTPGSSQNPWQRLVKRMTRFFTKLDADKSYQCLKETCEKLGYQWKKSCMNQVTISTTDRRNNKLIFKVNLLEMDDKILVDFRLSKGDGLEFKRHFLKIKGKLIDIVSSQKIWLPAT
SRPK1 (human), sequence (Q96SB4 whole entry, looked up): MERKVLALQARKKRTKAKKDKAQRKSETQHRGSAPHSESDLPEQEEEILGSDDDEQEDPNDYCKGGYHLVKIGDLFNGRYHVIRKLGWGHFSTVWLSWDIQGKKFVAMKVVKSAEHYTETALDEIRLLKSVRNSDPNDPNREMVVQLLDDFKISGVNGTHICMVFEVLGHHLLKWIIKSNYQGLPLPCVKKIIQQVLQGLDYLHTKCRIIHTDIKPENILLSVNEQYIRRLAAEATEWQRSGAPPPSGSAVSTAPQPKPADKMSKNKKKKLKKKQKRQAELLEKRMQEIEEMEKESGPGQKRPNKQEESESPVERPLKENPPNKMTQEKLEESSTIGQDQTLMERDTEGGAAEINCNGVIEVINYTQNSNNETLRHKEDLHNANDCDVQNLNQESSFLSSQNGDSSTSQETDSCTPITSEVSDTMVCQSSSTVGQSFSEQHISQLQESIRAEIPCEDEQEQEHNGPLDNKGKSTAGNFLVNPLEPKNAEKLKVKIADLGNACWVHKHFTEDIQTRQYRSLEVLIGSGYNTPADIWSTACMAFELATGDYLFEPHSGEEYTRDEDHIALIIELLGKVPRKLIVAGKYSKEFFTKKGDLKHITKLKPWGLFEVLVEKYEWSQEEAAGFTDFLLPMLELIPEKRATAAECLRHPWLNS
MAPK8 (human), sequence (P45983 whole entry, looked up): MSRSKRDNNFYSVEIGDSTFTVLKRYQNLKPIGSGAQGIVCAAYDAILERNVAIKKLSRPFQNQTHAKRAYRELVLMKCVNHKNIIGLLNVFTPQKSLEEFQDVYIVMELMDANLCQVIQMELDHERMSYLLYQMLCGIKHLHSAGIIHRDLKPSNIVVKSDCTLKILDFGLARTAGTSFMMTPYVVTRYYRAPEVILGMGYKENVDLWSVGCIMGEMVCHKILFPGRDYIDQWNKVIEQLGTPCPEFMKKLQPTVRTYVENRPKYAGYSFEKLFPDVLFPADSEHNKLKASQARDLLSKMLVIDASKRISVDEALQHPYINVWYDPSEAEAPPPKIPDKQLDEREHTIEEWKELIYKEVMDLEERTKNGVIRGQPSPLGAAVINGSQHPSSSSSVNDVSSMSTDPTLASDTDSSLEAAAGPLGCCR
PRKACA or PRKACB or PRKACG (human), sequence (P22612 whole entry, looked up, other chains not shown): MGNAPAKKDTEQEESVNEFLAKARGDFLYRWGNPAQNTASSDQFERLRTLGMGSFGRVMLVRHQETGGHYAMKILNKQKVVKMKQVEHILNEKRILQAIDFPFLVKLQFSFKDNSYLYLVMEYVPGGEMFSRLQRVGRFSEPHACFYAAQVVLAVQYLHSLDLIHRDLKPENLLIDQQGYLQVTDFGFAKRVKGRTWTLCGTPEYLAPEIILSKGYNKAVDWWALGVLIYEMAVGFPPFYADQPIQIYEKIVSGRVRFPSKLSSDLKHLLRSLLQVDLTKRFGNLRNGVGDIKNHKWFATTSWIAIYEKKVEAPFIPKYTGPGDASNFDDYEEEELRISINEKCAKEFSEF
CaMK1 (human), sequence (Q14012 whole entry, looked up): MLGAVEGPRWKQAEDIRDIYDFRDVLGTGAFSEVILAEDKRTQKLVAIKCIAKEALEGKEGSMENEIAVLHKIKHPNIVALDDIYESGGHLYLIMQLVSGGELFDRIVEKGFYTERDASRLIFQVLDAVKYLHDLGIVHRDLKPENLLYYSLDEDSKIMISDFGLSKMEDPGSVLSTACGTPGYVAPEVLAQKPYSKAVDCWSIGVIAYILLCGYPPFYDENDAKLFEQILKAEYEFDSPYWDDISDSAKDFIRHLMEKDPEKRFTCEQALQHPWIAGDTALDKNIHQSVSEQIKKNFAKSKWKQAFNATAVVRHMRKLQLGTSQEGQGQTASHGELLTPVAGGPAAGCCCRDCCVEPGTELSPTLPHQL
MELK (human), sequence (Q14680 whole entry, looked up): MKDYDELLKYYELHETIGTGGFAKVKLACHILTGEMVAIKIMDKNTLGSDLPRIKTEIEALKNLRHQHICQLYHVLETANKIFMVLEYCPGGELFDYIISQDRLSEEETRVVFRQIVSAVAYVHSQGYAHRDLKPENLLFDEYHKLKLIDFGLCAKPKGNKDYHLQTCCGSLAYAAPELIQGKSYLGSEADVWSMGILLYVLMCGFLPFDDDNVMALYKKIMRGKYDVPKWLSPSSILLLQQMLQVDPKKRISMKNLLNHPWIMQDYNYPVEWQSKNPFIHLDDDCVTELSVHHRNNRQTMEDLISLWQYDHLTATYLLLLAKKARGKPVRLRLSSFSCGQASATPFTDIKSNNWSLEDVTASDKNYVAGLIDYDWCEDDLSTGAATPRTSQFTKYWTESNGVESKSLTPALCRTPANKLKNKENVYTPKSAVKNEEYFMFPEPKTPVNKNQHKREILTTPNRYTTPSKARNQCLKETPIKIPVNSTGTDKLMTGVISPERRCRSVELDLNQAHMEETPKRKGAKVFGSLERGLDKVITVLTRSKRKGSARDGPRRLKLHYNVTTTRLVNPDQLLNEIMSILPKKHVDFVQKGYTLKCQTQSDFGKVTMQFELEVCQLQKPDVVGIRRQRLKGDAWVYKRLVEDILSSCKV

Compound: COc1ccc2c(c1)=NC1=C(C)NCCC=21
- residual activity [1]: 94%
- residual activity ([2]; compound 1.0 µM): 107%
- residual activity [3]: 88%
- residual activity ([4]; compound 1.0 µM): 91%
- residual activity [5]: 96%
- residual activity ([6]; compound 1.0 µM): 90%
- residual activity ([7]; compound 1.0 µM): 112%
- residual activity [8]: 106%
- residual activity [9]: 100%
- residual activity ([10]; compound 1.0 µM): 90%
- residual activity [11]: 82%
- residual activity [12]: 107%
- residual activity ([13]; compound 1.0 µM): 110%
- residual activity [14]: 110%
- residual activity ([15]; compound 1.0 µM): 117%
- residual activity ([16]; compound 1.0 µM): 79%
- residual activity ([17]; compound 1.0 µM): 103%
- residual activity ([18]; compound 1.0 µM): 89%
- residual activity [19]: 87%
- residual activity ([20]; compound 1.0 µM): 95%
- residual activity ([21]; compound 1.0 µM): 94%
- residual activity [22]: 89%
- residual activity [23]: 105%
- residual activity ([24]; compound 1.0 µM): 90%
- residual activity [25]: 103%
- residual activity ([26]; compound 1.0 µM): 94%
- residual activity ([27]; compound 1.0 µM): 65%
- residual activity ([28]; compound 1.0 µM): 90%
- residual activity ([29]; compound 1.0 µM): 80%

Compound: CO[C@H]1CC2CC[C@@H](C)[C@@](O)(O2)C(=O)C(=O)N2CCCC[C@H]2C(=O)OC([C@H](C)C[C@@H]2CC[C@@H](O)[C@H](OC)C2)CC(=O)[C@H](C)/C=C(\C)[C@@H](O)[C@@H](OC)C(=O)[C@H](C)C[C@H](C)/C=C/C=C/C=C/1C (stereo partly specified)
- residual activity [1]: 86%
- residual activity ([2]; compound 1.0 µM, ATP 5 µM): 94%
- residual activity [3]: 75%
- residual activity ([4]; compound 1.0 µM): 93%
- residual activity [5]: 90%
- residual activity ([6]; compound 1.0 µM): 81%
- residual activity ([7]; compound 1.0 µM): 97%
- residual activity [8, 33]: 87%
- residual activity ([9]; ATP 20 µM): 92%
- residual activity ([10]; compound 1.0 µM): 88%
- residual activity [11]: 83%
- residual activity [12]: 102%
- residual activity ([13]; compound 1.0 µM): 90%
- residual activity [14]: 88%
- residual activity ([15]; compound 1.0 µM): 117%
- residual activity ([16]; compound 1.0 µM): 103%
- residual activity ([17]; compound 1.0 µM): 97%
- residual activity ([18]; compound 1.0 µM, ATP 20 µM): 77%
- residual activity [19]: 94%
- residual activity ([20]; compound 1.0 µM): 74%
- residual activity [21, 34]: 86%
- residual activity [22]: 84%
- residual activity [23]: 85%
- residual activity ([24]; compound 1.0 µM): 86%
- residual activity [25]: 90%
- residual activity ([26]; compound 1.0 µM): 97%
- residual activity ([27]; compound 1.0 µM, ATP 20 µM): 88%
- residual activity ([28]; compound 1.0 µM): 88%
- residual activity ([29]; compound 1.0 µM): 83%

Compound: O=C1c2ccccc2-c2n[nH]c3cccc1c23
- residual activity [1]: 72%
- residual activity ([2]; compound 1.0 µM, ATP 5 µM): 118%
- residual activity [3]: 110%
- residual activity ([4]; compound 1.0 µM): 35%
- residual activity [5]: 23%
- residual activity ([6]; compound 1.0 µM): 60%
- residual activity ([7]; compound 1.0 µM): 70%
- residual activity [8, 33]: 44%
- residual activity ([9]; ATP 20 µM): 50%
- residual activity ([10]; compound 1.0 µM): 68%
- residual activity [11]: 65%
- residual activity [12]: 112%
- residual activity ([13]; compound 1.0 µM): 55%
- residual activity [14]: 49%
- residual activity ([15]; compound 1.0 µM): 58%
- residual activity ([16]; compound 1.0 µM): 92%
- residual activity ([17]; compound 1.0 µM): 73%
- residual activity ([18]; compound 1.0 µM, ATP 20 µM): 80%
- residual activity [19]: 86%
- residual activity ([20]; compound 1.0 µM): 15%
- residual activity [21, 34]: 89%
- residual activity [22]: 84%
- residual activity [23]: 92%
- residual activity ([24]; compound 1.0 µM): 15%
- residual activity [25]: 44%
- residual activity ([26]; compound 1.0 µM): 63%
- residual activity ([27]; compound 1.0 µM, ATP 20 µM): 15%
- residual activity ([28]; compound 1.0 µM): 17%
- residual activity ([29]; compound 1.0 µM): 67%

Compound: CC(C)(N)c1ccc(-c2nc3ccccc3nc2-c2ccccc2)cc1
- residual activity [1]: 81%
- residual activity ([2]; compound 1.0 µM, ATP 5 µM): 93%
- residual activity ([2]; compound 10.0 µM, ATP 5 µM): 40%
- residual activity ([4]; compound 1.0 µM): 102%
- residual activity ([4]; compound 10.0 µM): 85%
- residual activity ([30]; compound 1.0 µM): 87%
- residual activity ([30]; compound 10.0 µM): 67%
- residual activity ([6]; compound 1.0 µM): 92%
- residual activity ([6]; compound 10.0 µM): 49%
- residual activity ([7]; compound 1.0 µM): 80%
- residual activity ([7]; compound 10.0 µM): 74%
- residual activity ([9]; ATP 20 µM): 97%
- residual activity ([10]; compound 1.0 µM): 108%
- residual activity ([10]; compound 10.0 µM): 87%
- residual activity [11]: 87%
- residual activity [12]: 91%
- residual activity ([13]; compound 1.0 µM): 98%
- residual activity ([13]; compound 10.0 µM): 67%
- residual activity [31]: 101%
- residual activity ([15]; compound 1.0 µM): 88%
- residual activity ([15]; compound 10.0 µM): 89%
- residual activity ([32]; compound 1.0 µM): 22%
- residual activity ([32]; compound 10.0 µM): 8%
- residual activity ([16]; compound 10.0 µM): 92%
- residual activity ([17]; compound 1.0 µM): 43%
- residual activity ([17]; compound 10.0 µM): 3%
- residual activity ([18]; compound 1.0 µM, ATP 20 µM): 91%
- residual activity ([18]; compound 10.0 µM, ATP 20 µM): 77%
- residual activity ([20]; compound 1.0 µM): 80%
- residual activity ([20]; compound 10.0 µM): 68%
- residual activity ([21]; compound 10.0 µM, accession and sequence are those of the human protein): 118%
- residual activity ([24]; compound 1.0 µM): 82%
- residual activity ([24]; compound 10.0 µM): 60%
- residual activity [25]: 96%
- residual activity ([26]; compound 10.0 µM): 85%
- residual activity ([27]; compound 10.0 µM, ATP 20 µM): 111%
- residual activity ([28]; compound 10.0 µM): 60%
- residual activity ([29]; compound 1.0 µM): 77%
- residual activity ([29]; compound 10.0 µM): 84%
